Measurements as given in ChEMBL document CHEMBL1208670, “Synthesis, characterization and antimicrobial studies of 2-(4-methoxy-phenyl)-5-methyl-4-(2-arylsulfanyl-ethyl)-2,4-dihydro-[1,2,4] triazolo-3-ones and their corresponding sulfones” (2010).
In brackets after ≈: the same amount, converted by molar mass.

Key:
Assay type in all cases: functional
Staphylococcus aureus = assay: Antibacterial activity against Staphylococcus aureus by twofold serial dilution method
Bacillus subtilis = assay: Antibacterial activity against Bacillus subtilis by twofold serial dilution method
Saccharomyces cerevisiae = assay: Antifungal activity against Saccharomyces cerevisiae by twofold serial dilution method
Candida albicans = assay: Antifungal activity against Candida albicans by twofold serial dilution method
Rhizopus arrhizus = assay: Antifungal activity against Rhizopus oryzae by twofold serial dilution method
Aspergillus niger = assay: Antifungal activity against Aspergillus niger by twofold serial dilution method
Escherichia coli = assay: Antibacterial activity against Escherichia coli by twofold serial dilution method
[1] = test system: Staphylococcus epidermidis; assay: Antibacterial activity against Staphylococcus epidermidis by twofold serial dilution method
Aspergillus flavus = assay: Antifungal activity against Aspergillus flavus by twofold serial dilution method
Pseudomonas aeruginosa = assay: Antibacterial activity against Pseudomonas aeruginosa by twofold serial dilution method

MIC (Staphylococcus aureus)	MIC (Bacillus subtilis)	MIC (Saccharomyces cerevisiae)	MIC (Candida albicans)	MIC (Rhizopus arrhizus)	MIC (Aspergillus niger)	MIC (Escherichia coli)	MIC [1]	MIC (Aspergillus flavus)	MIC (Pseudomonas aeruginosa)	SMILES
75 µg/mL (≈ 209 µM)	150 µg/mL (≈ 417 µM)	150 µg/mL (≈ 417 µM)	150 µg/mL (≈ 417 µM)	150 µg/mL (≈ 417 µM)	150 µg/mL (≈ 417 µM)	150 µg/mL (≈ 417 µM)	75 µg/mL (≈ 209 µM)	150 µg/mL (≈ 417 µM)	75 µg/mL (≈ 209 µM)	COc1ccc(-n2nc(C)n(CCSc3ccc(F)cc3)c2=O)cc1
9.75 µg/mL (≈ 23.8 µM)	150 µg/mL (≈ 366 µM)	150 µg/mL (≈ 366 µM)	150 µg/mL (≈ 366 µM)	18.8 µg/mL (≈ 45.8 µM)	150 µg/mL (≈ 366 µM)	9.75 µg/mL (≈ 23.8 µM)	150 µg/mL (≈ 366 µM)	150 µg/mL (≈ 366 µM)	75 µg/mL (≈ 183 µM)	COc1ccc(-n2nc(C)n(CCSc3cccc(C(F)(F)F)c3)c2=O)cc1
150 µg/mL (≈ 357 µM)	75 µg/mL (≈ 178 µM)	150 µg/mL (≈ 357 µM)	150 µg/mL (≈ 357 µM)	75 µg/mL (≈ 178 µM)	75 µg/mL (≈ 178 µM)	150 µg/mL (≈ 357 µM)	150 µg/mL (≈ 357 µM)	75 µg/mL (≈ 178 µM)	75 µg/mL (≈ 178 µM)	COc1ccc(-n2nc(C)n(CCSc3ccc(Br)cc3)c2=O)cc1
75 µg/mL (≈ 202 µM)	18.8 µg/mL (≈ 50.5 µM)	150 µg/mL (≈ 404 µM)	150 µg/mL (≈ 404 µM)	37.5 µg/mL (≈ 101 µM)	37.5 µg/mL (≈ 101 µM)	18.8 µg/mL (≈ 50.5 µM)	150 µg/mL (≈ 404 µM)	75 µg/mL (≈ 202 µM)	75 µg/mL (≈ 202 µM)	COc1ccc(-n2nc(C)n(CCSc3cccc(OC)c3)c2=O)cc1
75 µg/mL (≈ 210 µM)	75 µg/mL (≈ 210 µM)	150 µg/mL (≈ 421 µM)	150 µg/mL (≈ 421 µM)	37.5 µg/mL (≈ 105 µM)	37.5 µg/mL (≈ 105 µM)	150 µg/mL (≈ 421 µM)	75 µg/mL (≈ 210 µM)	75 µg/mL (≈ 210 µM)	150 µg/mL (≈ 421 µM)	COc1ccc(-n2nc(C)n(CCSc3ccc(N)cc3)c2=O)cc1
75 µg/mL (≈ 220 µM)	75 µg/mL (≈ 220 µM)	150 µg/mL (≈ 439 µM)	150 µg/mL (≈ 439 µM)	75 µg/mL (≈ 220 µM)	37.5 µg/mL (≈ 110 µM)	37.5 µg/mL (≈ 110 µM)	37.5 µg/mL (≈ 110 µM)	75 µg/mL (≈ 220 µM)	75 µg/mL (≈ 220 µM)	COc1ccc(-n2nc(C)n(CCSc3ccccc3)c2=O)cc1
75 µg/mL (≈ 169 µM)	150 µg/mL (≈ 338 µM)	150 µg/mL (≈ 338 µM)	150 µg/mL (≈ 338 µM)	150 µg/mL (≈ 338 µM)	150 µg/mL (≈ 338 µM)	150 µg/mL (≈ 338 µM)	150 µg/mL (≈ 338 µM)	150 µg/mL (≈ 338 µM)	150 µg/mL (≈ 338 µM)	COc1ccc(-n2nc(C)n(CCSc3nnc(-c4ccc(Cl)cc4)o3)c2=O)cc1
37.5 µg/mL (≈ 95.8 µM)	150 µg/mL (≈ 383 µM)	150 µg/mL (≈ 383 µM)	150 µg/mL (≈ 383 µM)	18.8 µg/mL (≈ 47.9 µM)	37.5 µg/mL (≈ 95.8 µM)	150 µg/mL (≈ 383 µM)	75 µg/mL (≈ 192 µM)	75 µg/mL (≈ 192 µM)	37.5 µg/mL (≈ 95.8 µM)	COc1ccc(-n2nc(C)n(CCS(=O)(=O)c3ccccc3F)c2=O)cc1
18.8 µg/mL (≈ 47.9 µM)	75 µg/mL (≈ 192 µM)	150 µg/mL (≈ 383 µM)	150 µg/mL (≈ 383 µM)	37.5 µg/mL (≈ 95.8 µM)	37.5 µg/mL (≈ 95.8 µM)	9.38 µg/mL (≈ 24 µM)	37.5 µg/mL (≈ 95.8 µM)	75 µg/mL (≈ 192 µM)	150 µg/mL (≈ 383 µM)	COc1ccc(-n2nc(C)n(CCS(=O)(=O)c3cccc(F)c3)c2=O)cc1
75 µg/mL (≈ 192 µM)	75 µg/mL (≈ 192 µM)	150 µg/mL (≈ 383 µM)	150 µg/mL (≈ 383 µM)	75 µg/mL (≈ 192 µM)	37.5 µg/mL (≈ 95.8 µM)	37.5 µg/mL (≈ 95.8 µM)	37.5 µg/mL (≈ 95.8 µM)	75 µg/mL (≈ 192 µM)	75 µg/mL (≈ 192 µM)	COc1ccc(-n2nc(C)n(CCS(=O)(=O)c3ccc(F)cc3)c2=O)cc1
18.8 µg/mL (≈ 42.5 µM)	37.5 µg/mL (≈ 85 µM)	150 µg/mL (≈ 340 µM)	150 µg/mL (≈ 340 µM)	75 µg/mL (≈ 170 µM)	37.5 µg/mL (≈ 85 µM)	37.5 µg/mL (≈ 85 µM)	75 µg/mL (≈ 170 µM)	75 µg/mL (≈ 170 µM)	18.8 µg/mL (≈ 42.5 µM)	COc1ccc(-n2nc(C)n(CCS(=O)(=O)c3cccc(C(F)(F)F)c3)c2=O)cc1
9.38 µg/mL (≈ 20.7 µM)	75 µg/mL (≈ 166 µM)	150 µg/mL (≈ 332 µM)	150 µg/mL (≈ 332 µM)	37.5 µg/mL (≈ 82.9 µM)	37.5 µg/mL (≈ 82.9 µM)	150 µg/mL (≈ 332 µM)	150 µg/mL (≈ 332 µM)	75 µg/mL (≈ 166 µM)	150 µg/mL (≈ 332 µM)	COc1ccc(-n2nc(C)n(CCS(=O)(=O)c3ccc(Br)cc3)c2=O)cc1
37.5 µg/mL (≈ 100 µM)	150 µg/mL (≈ 402 µM)	150 µg/mL (≈ 402 µM)	150 µg/mL (≈ 402 µM)	150 µg/mL (≈ 402 µM)	150 µg/mL (≈ 402 µM)	150 µg/mL (≈ 402 µM)	75 µg/mL (≈ 201 µM)	150 µg/mL (≈ 402 µM)	75 µg/mL (≈ 201 µM)	COc1ccc(-n2nc(C)n(CCS(=O)(=O)c3ccccc3)c2=O)cc1
9.75 µg/mL (≈ 27.1 µM)	37.5 µg/mL (≈ 104 µM)	150 µg/mL (≈ 417 µM)	37.5 µg/mL (≈ 104 µM)	9.75 µg/mL (≈ 27.1 µM)	150 µg/mL (≈ 417 µM)	75 µg/mL (≈ 209 µM)	150 µg/mL (≈ 417 µM)	150 µg/mL (≈ 417 µM)	37.5 µg/mL (≈ 104 µM)	COc1ccc(-n2nc(C)n(CCSc3ccccc3F)c2=O)cc1
37.5 µg/mL (≈ 104 µM)	150 µg/mL (≈ 417 µM)	150 µg/mL (≈ 417 µM)	150 µg/mL (≈ 417 µM)	37.5 µg/mL (≈ 104 µM)	150 µg/mL (≈ 417 µM)	150 µg/mL (≈ 417 µM)	75 µg/mL (≈ 209 µM)	150 µg/mL (≈ 417 µM)	37.5 µg/mL (≈ 104 µM)	COc1ccc(-n2nc(C)n(CCSc3cccc(F)c3)c2=O)cc1
6.25 µg/mL (≈ 18.7 µM)	1.53 µg/mL (≈ 4.56 µM)					7.81 µg/mL (≈ 23.4 µM)	3.12 µg/mL (≈ 9.35 µM)		12.5 µg/mL (≈ 37.4 µM)	CC1(C)S[C@@H]2[C@H](NC(=O)Cc3ccccc3)C(=O)N2[C@H]1C(=O)O [PENICILLIN G]

SMILES	MIC (Staphylococcus aureus)	MIC (Bacillus subtilis)	MIC (Saccharomyces cerevisiae)	MIC (Candida albicans)	MIC (Rhizopus arrhizus)	MIC (Aspergillus niger)	MIC (Escherichia coli)	MIC [1]	MIC (Aspergillus flavus)	MIC (Pseudomonas aeruginosa)
C[C@@H]1[C@H](O)[C@@H](C)/C=C/C=C/C=C/C=C/C=C/C=C/C=C/[C@H](O[C@@H]2O[C@H](C)[C@@H](O)[C@H](N)[C@@H]2O)C[C@@H]2O[C@](O)(C[C@@H](O)C[C@@H](O)[C@H](O)CC[C@@H](O)C[C@@H](O)CC(=O)O[C@H]1C)C[C@H](O)[C@H]2C(=O)O [AMPHOTERICIN B]			6.25 µg/mL (≈ 6.76 µM)	6.25 µg/mL (≈ 6.76 µM)	1.56 µg/mL (≈ 1.69 µM)	1.56 µg/mL (≈ 1.69 µM)			6.25 µg/mL (≈ 6.76 µM)	
CN[C@@H]1[C@H](O[C@H]2[C@H](O[C@H]3[C@H](O)[C@@H](O)[C@H](N=C(N)N)[C@@H](O)[C@@H]3N=C(N)N)O[C@@H](C)[C@]2(O)C=O)O[C@@H](CO)[C@H](O)[C@H]1O [STREPTOMYCIN]	1.56 µg/mL (≈ 2.68 µM)	6.25 µg/mL (≈ 10.7 µM)					3.12 µg/mL (≈ 5.37 µM)	1.56 µg/mL (≈ 2.69 µM)		3.12 µg/mL (≈ 5.37 µM)
